Tests used:
[1] = tested on: histone H4; experiment: Histone H4 acetylation (in vitro HDAC inhibiting activity) in primary rat hepatocytes, Western blot; format: cell-based; details: 48 hours
Text: Male outbred Sprague-Dawley rats (200-300 g, Iffa Credo, Brussels, Belgium) were kept under controlled environmental conditions (12-hr light-dark cycle) and fed a standard diet (Animafabo A04, water ad libitum). Hepatocytes were isolated by a two-step collagenase perfusion as described (De Smet et al. In ‘Methods in Molecular Biology, Vol. 107: Cytochrome P450 Protocols’, Philips I R and Shephard E A, eds., pp 295-301, Humana Press, Totowa, 1998). Cell liability was >90% as determined by trypan blue exclusion. Cells (0.4×10^5 cells/cm^2) were plated in MEM/M199 (3:1), containing BSA (1 mg/ml), bovine insulin (10 μg/ml), L-glutamine (2 mM), FBS (10% v/v) and antibiotics (7.3 IU/ml benzyl penicillin, 50 μg/ml streptomycin sulphate, 50 μg/ml kanamycin monosulphstep and 10 μg/ml sodium ampicillin). Four hours after plating, serum-containing medium was removed and fresh serum-free medium was added to the cultures. Culture medium was refreshed daily. EGF (50 ng/ml) was added 4 hours after plating. A 100 mM stock solution of 4-Me2N-BAVAH was prepared in ethanol.
Hepatocytes were treated for 48 hours with 4-Me2N-BAVAH (10, 25 or 50 μM) Histones were acid-extracted as described previously (Coussens et al. J Biol Chem 254:1716-1723, 1979). Extracted histones (20 μg per lane) were electrophoresed on a 15% SDS-PAGE as described (Waterborg J et al. Anal Biochem 162: 430-434, 1987) and blotted. Equal sample loading was confirmed with Ponceau S. Membranes were incubated at room temperature with primary antibody for 1 hour under gentle shaking and visualized by ECL. Band intensities were quantified by laser densitometry.

[2] = tested on: primary rat hepatocytes; experiment: De novo protein synthesis by [3H]-leucine incorporation; format: cell-based; details: co-treatment with EGF
Protocol: De novo protein synthesis was determined by [^3H]-leucine incorporation. [^3H]-Leucine (2 μCi/ml final concentration) was added to the hepatocyte cultures 68 hours after plating. Four hours later, cells were washed twice with ice-cold PBS and lyzed in 40% cold trichloroacetic acid. After 2 additional washes in 10% cold trichloroacetic acid, the pellet was solubilized in NaOH (0.1N). The amount of [^3H]-leucine was subsequently measured by liquid scintillation.

[3] = tested on: CYP 1A1; experiment: CYP 1A1 activity (ethoxyresorufin conversion) in cultured rat hepatocytes; format: cell-based
Text: Hepatocytes were isolated from male Sprague-Dawley rats by a two-step collagenase perfusion as described (De Smet et al. In ‘Methods in Molecular Biology, Vol. 107: Cytochrome P450 Protocols’, Philips IR and Shephard E A, eds., p.p 295-301, Humana Press, Totowa, 1998). Hepatocytes were cultivated in monolayer cultures with Willam's E Medium (WE) for 7 days. […] The maintenance of differentiation characteristics was studied after 2, 4, and 7 days (D2, D4, D7) of culture.
Phase I biotransformation was assessed by means of activity measurements of the microsomal cytochrome P450 (CYP) 1A1 and 2B1/2 iso-enzymes, using standard techniques known in the art (i.e., measuring conversion of ethoxyresorufin into hydroxyresorufin for CYP 1A1 and conversion of penthoxyresorufin to hydroxyresorufin for CYP 2B1/2) (Burke et al. Drug Metab Dispos 2:583-588, 1974). Microsomes were prepared from freshly isolated and hepatocytes cultured for 7 days according to Hales et al. (Biochem Pharmacol 26:555-556, 1977).

[4] = Biotransformation by human liver microsomes; format: in vitro ADME; details: 140 μM TSA, 150 min
Protocol: Human liver specimens (n=3) were acquired from organ donors at the Academic Hospital of the VUB in accordance with the regulations of the local Medical Ethical Committee and immediately frozen in liquid nitrogen. While human liver microsomes were prepared from frozen liver tissue, rat livers (n=3) were freshly isolated for immediate microsome preparation. Microsomal 7-ethoxyresorufin-O-deethylase (EROD) [31]was used as a marker enzyme to evaluate the microsomal biotransformation activity before and after storage. Incubations were carried out in a 100 mM sodium potassium phosphate buffer pH 7.4 in the presence of a NADPH-generating system (0.5 mM NADP^+, 10 mM glucose 6-phosphate, 2 U/ml glucose 6-phosphate dehydrogenase and 0.6 mM MgCl2). Microsomes (0.0-2.0 mg microsomal protein/ml) were incubated with 140 μM substrate at 37° C. for 150 min. Boiled microsomes ([…]) served as a control. Biotransformation reactions were initiated by addition of substrate and, at selected time intervals, terminated by dilution with ice-cold acetonitrile (1:2.5).
After centrifugation (2000 g, 45 min, 4° C.) of the diluted microsomal samples, the clear supernatant was injected onto a HPLC column. Samples from incubations with hepatocytes were thawed on ice and centrifugated (120 g, 2 min). […]

SMILES	histone H4 acetylation, fold induction ([1]; 10 μM) [fold induction]	histone H4 acetylation, fold induction ([1]; 25 μM) [fold induction]	histone H4 hyperacetylation, fold induction ([1]; 50 μM) [fold induction]	de novo protein synthesis [2]	activity of CYP 1A1 versus EtOH-treated controls ([3]; 1 μM TSA starting at 0 h or 4 h, day 4 and 7)	CYP 1A1/2 Activity ([3]; 7-day conventionally cultured adult rat hepatocytes, 1 μm TSA)	biotransformation in microsome suspensions [4]
CN(C)c1ccc(C(=O)NCCCCC(=O)NO)cc1 [4-Me2N-BAVAH, 5-(4-dimethylaminobenzoyl)-aminovaleric acid hydroxamide]	2.35±0.05	3.56±0.23	6.91±0.63	not further enhanced	–	–	–
CC(C=CC(=O)NO)=CC(C)C(=O)c1ccc(N(C)C)cc1 (stereo not shown) [TSA]	–	–	–	–	significantly higher	4.3 ± 0.6 pmol resorufin/minute mg microsomal protein	slow and incomplete biotransformation

Reference: patent US20090130064A1, “DIFFERENTIATION OF STEM CELLS AND STABILIZATION OF PHENOTYPICAL PROPERTIES OF PRIMARY CELLS” (priority 2004, published 2009)
